According to ChEMBL document CHEMBL1152012, “Synthesis of (+)-biotin derivatives as HIV-1 protease inhibitors” (Bioorg Med Chem Lett, 1996):

Columns and labels:
[1] = target: Human immunodeficiency virus type 1 protease (Human immunodeficiency virus 1, UniProt Q72874); test: Inhibitory activity against HIV protease enzyme.
MT2 = test: Concentration resulting in 90% inhibition of viral RNA production in HIV-1 infected MT-2 cells; assay type: functional; settings: Homo sapiens

| SMILES | Ki [1] [µM] | IC90 (MT2) [µM] |
| --- | --- | --- |
| COC(=O)CCCC[C@@H]1SCC2C1N(Cc1cccc(Br)c1)C(=O)N2Cc1cccc(Br)c1 (some centres not stated) | 0.58 | 44 |
| O=C1N(Cc2cccc(Br)c2)C2CS[C@@H](CCCCCO)C2N1Cc1cccc(Br)c1 (some centres not stated) | 0.5 | 7 |
| CC(=O)c1cccc(CN2C(=O)N(Cc3cccc(C(C)=O)c3)C3C2CS[C@H]3CCCCCO)c1 (some centres not stated) | 3.7 | 26 |
| O=C1N(Cc2ccccc2)C2CS[C@@H](CCCCCO)C2N1Cc1ccccc1 (some centres not stated) | 10.3 | 46 |
| CC(=O)c1cccc(COC(=O)CCCC[C@@H]2SCC3C2N(Cc2cccc(C(C)=O)c2)C(=O)N3Cc2cccc(C(C)=O)c2)c1 (some centres not stated) | 3.4 | 12.5 |
| O=C(O)CCCC[C@@H]1SCC2C1N(Cc1cccc(Br)c1)C(=O)N2Cc1cccc(Br)c1 (some centres not stated) | 2.2 | 34 |
| COC(=O)CCCC[C@H]1C2C(CS1(=O)=O)N(Cc1cccc(Br)c1)C(=O)N2Cc1cccc(Br)c1 (some centres not stated) | 4.1 | > 80 |
| O=C1N(Cc2cccc(Br)c2)C2CS(=O)(=O)[C@@H](CCCCCO)C2N1Cc1cccc(Br)c1 (some centres not stated) | 6.9 | 80 |
| O=C(CCCC[C@@H]1SCC2C1N(Cc1cccc(Br)c1)C(=O)N2Cc1cccc(Br)c1)OCc1cccc(Br)c1 (some centres not stated) | 0.68 | 45 |
| C/C(=N\O)c1cccc(COC(=O)CCCC[C@@H]2SCC3C2N(Cc2cccc(/C(C)=N/O)c2)C(=O)N3Cc2cccc(/C(C)=N/O)c2)c1 (some centres not stated) | 2.7 | 67 |
| CC(O)c1cccc(CN2C(=O)N(Cc3cccc(C(C)O)c3)C3C2CS[C@H]3CCCCCO)c1 (some centres not stated) | 1.9 | > 98 |
